Experimental data from ChEMBL document CHEMBL5154747, “Discovery of new carbonic anhydrase IX inhibitors as anticancer agents by toning the hydrophobic and hydrophilic rims of the active site to encounter the dual-tail approach” (Eur J Med Chem, 2022).

Legend:
HCC 2998 = assay: Anticancer activity against human HCC 2998 cells assessed as cell growth inhibition at 10 uM incubated for 48 hrs by SRB assay relative to control; type: functional; conditions: read-out: GI
Hs-578T = assay: Anticancer activity against human Hs-578T cells assessed as cell growth inhibition at 10 uM incubated for 48 hrs by SRB assay relative to control; type: functional; conditions: read-out: GI
CAKI-1 = assay: Anticancer activity against human CAKI-1 cells assessed as cell growth inhibition at 10 uM incubated for 48 hrs by SRB assay relative to control; type: functional; conditions: read-out: GI
MDA-MB-435 = assay: Anticancer activity against human MDA-MB-435 cells assessed as cell growth inhibition at 10 uM incubated for 48 hrs by SRB assay relative to control; type: functional; conditions: read-out: GI
HL-60(TB) = assay: Anticancer activity against human HL-60(TB) cells assessed as cell growth inhibition at 10 uM incubated for 48 hrs by SRB assay relative to control; type: functional; conditions: read-out: GI
SF-295 = assay: Anticancer activity against human SF-295 cells assessed as cell growth inhibition at 10 uM incubated for 48 hrs by SRB assay relative to control; type: functional; conditions: read-out: GI
SN12C = assay: Anticancer activity against human SN12C cells assessed as cell growth inhibition at 10 uM incubated for 48 hrs by SRB assay relative to control; type: functional; conditions: read-out: GI
SK-MEL-2 = assay: Anticancer activity against human SK-MEL-2 cells assessed as cell growth inhibition at 10 uM incubated for 48 hrs by SRB assay relative to control; type: functional; conditions: read-out: GI
OVCAR-4 = assay: Anticancer activity against human OVCAR-4 cells assessed as cell growth inhibition at 10 uM incubated for 48 hrs by SRB assay relative to control; type: functional; conditions: read-out: GI
HCT-116 = assay: Anticancer activity against human HCT-116 cells assessed as cell growth inhibition at 10 uM incubated for 48 hrs by SRB assay relative to control; type: functional; conditions: read-out: GI
SR = assay: Anticancer activity against human SR cells assessed as cell growth inhibition at 10 uM incubated for 48 hrs by SRB assay relative to control; type: functional; conditions: read-out: GI
SNB-75 = assay: Anticancer activity against human SNB-75 cells assessed as cell growth inhibition at 10 uM incubated for 48 hrs by SRB assay relative to control; type: functional; conditions: read-out: GI
SNB-19 = assay: Anticancer activity against human SNB-19 cells assessed as cell growth inhibition at 10 uM incubated for 48 hrs by SRB assay relative to control; type: functional; conditions: read-out: GI
MDA-MB-231 = assay: Anticancer activity against human MDA-MB-231 cells assessed as cell growth inhibition at 10 uM incubated for 48 hrs by SRB assay relative to control; type: functional; conditions: read-out: GI
Malme-3M = assay: Anticancer activity against human Malme-3M cells assessed as cell growth inhibition at 10 uM incubated for 48 hrs by SRB assay relative to control; type: functional; conditions: read-out: GI
BT-549 = assay: Anticancer activity against human BT-549 cells assessed as cell growth inhibition at 10 uM incubated for 48 hrs by SRB assay relative to control; type: functional; conditions: read-out: GI
SK-OV-3 = assay: Anticancer activity against human SK-OV-3 cells assessed as cell growth inhibition at 10 uM incubated for 48 hrs by SRB assay relative to control; type: functional; conditions: read-out: GI
IGROV-1 = assay: Anticancer activity against human IGROV-1 cells assessed as cell growth inhibition at 10 uM incubated for 48 hrs by SRB assay relative to control; type: functional; conditions: read-out: GI
K562 = assay: Anticancer activity against human K562 cells assessed as cell growth inhibition at 10 uM incubated for 48 hrs by SRB assay relative to control; type: functional; conditions: read-out: GI
HT-29 = assay: Anticancer activity against human HT-29 cells assessed as cell growth inhibition at 10 uM incubated for 48 hrs by SRB assay relative to control; type: functional; conditions: read-out: GI
HOP-62 = assay: Anticancer activity against human HOP-62 cells assessed as cell growth inhibition at 10 uM incubated for 48 hrs by SRB assay relative to control; type: functional; conditions: read-out: GI
MDA-MB-468 = assay: Anticancer activity against human MDA-MB-468 cells assessed as cell growth inhibition at 10 uM incubated for 48 hrs by SRB assay relative to control; type: functional; conditions: read-out: GI
T47D = assay: Anticancer activity against human T47D cells assessed as cell growth inhibition at 10 uM incubated for 48 hrs by SRB assay relative to control; type: functional; conditions: read-out: GI
NCI-H522 = assay: Anticancer activity against human NCI-H522 cells assessed as cell growth inhibition at 10 uM incubated for 48 hrs by SRB assay relative to control; type: functional; conditions: read-out: GI
ACHN = assay: Anticancer activity against human ACHN cells assessed as cell growth inhibition at 10 uM incubated for 48 hrs by SRB assay relative to control; type: functional; conditions: read-out: GI
NCI-H23 = assay: Anticancer activity against human NCI-H23 cells assessed as cell growth inhibition at 10 uM incubated for 48 hrs by SRB assay relative to control; type: functional; conditions: read-out: GI
HOP-92 = assay: Anticancer activity against human HOP-92 cells assessed as cell growth inhibition at 10 uM incubated for 48 hrs by SRB assay relative to control; type: functional; conditions: read-out: GI
UACC-257 = assay: Anticancer activity against human UACC-257 cells assessed as cell growth inhibition at 10 uM incubated for 48 hrs by SRB assay relative to control; type: functional; conditions: read-out: GI
OVCAR-3 = assay: Anticancer activity against human OVCAR-3 cells assessed as cell growth inhibition at 10 uM incubated for 48 hrs by SRB assay relative to control; type: functional; conditions: read-out: GI
SK-MEL-28 = assay: Anticancer activity against human SK-MEL-28 cells assessed as cell growth inhibition at 10 uM incubated for 48 hrs by SRB assay relative to control; type: functional; conditions: read-out: GI
Carbonic anhydrase 9 = Carbonic anhydrase 9 (Homo sapiens, UniProt Q16790); assay: Inhibition of recombinant human CA 9 preincubated for 15 mins by phenol red dye based stopped flow CO2 hydration assay
SF-539 = assay: Anticancer activity against human SF-539 cells assessed as cell growth inhibition at 10 uM incubated for 48 hrs by SRB assay relative to control; type: functional; conditions: read-out: GI
OVCAR-5 = assay: Anticancer activity against human OVCAR-5 cells assessed as cell growth inhibition at 10 uM incubated for 48 hrs by SRB assay relative to control; type: functional; conditions: read-out: GI
KM12 = assay: Anticancer activity against human KM12 cells assessed as cell growth inhibition at 10 uM incubated for 48 hrs by SRB assay relative to control; type: functional; conditions: read-out: GI
RXF 393 = assay: Anticancer activity against human RXF 393 cells assessed as cell growth inhibition at 10 uM incubated for 48 hrs by SRB assay relative to control; type: functional; conditions: read-out: GI
SK-MEL-5 = assay: Anticancer activity against human SK-MEL-5 cells assessed as cell growth inhibition at 10 uM incubated for 48 hrs by SRB assay relative to control; type: functional; conditions: read-out: GI
NCI-H460 = assay: Anticancer activity against human NCI-H460 cells assessed as cell growth inhibition at 10 uM incubated for 48 hrs by SRB assay relative to control; type: functional; conditions: read-out: GI
MOLT-4 = assay: Anticancer activity against human MOLT-4 cells assessed as cell growth inhibition at 10 uM incubated for 48 hrs by SRB assay relative to control; type: functional; conditions: read-out: GI
TK-10 = assay: Anticancer activity against human TK-10 cells assessed as cell growth inhibition at 10 uM incubated for 48 hrs by SRB assay relative to control; type: functional; conditions: read-out: GI

Compound | inhibition of growth at 10 µM (HCC 2998) [%] | inhibition of growth at 10 µM (Hs-578T) [%] | inhibition of growth at 10 µM (CAKI-1) [%] | inhibition of growth at 10 µM (MDA-MB-435) [%] | inhibition of growth at 10 µM (HL-60(TB)) [%] | inhibition of growth at 10 µM (SF-295) [%] | inhibition of growth at 10 µM (SN12C) [%] | inhibition of growth at 10 µM (SK-MEL-2) [%] | inhibition of growth at 10 µM (OVCAR-4) [%] | inhibition of growth at 10 µM (HCT-116) [%] | inhibition of growth at 10 µM (SR) [%] | inhibition of growth at 10 µM (SNB-75) [%] | inhibition of growth at 10 µM (SNB-19) [%] | inhibition of growth at 10 µM (MDA-MB-231) [%] | inhibition of growth at 10 µM (Malme-3M) [%] | inhibition of growth at 10 µM (BT-549) [%] | inhibition of growth at 10 µM (SK-OV-3) [%] | inhibition of growth at 10 µM (IGROV-1) [%] | inhibition of growth at 10 µM (K562) [%] | inhibition of growth at 10 µM (HT-29) [%] | also measured
NS(=O)(=O)c1ccc(Nc2nc(N/N=C/c3cccc4ccccc34)nc(Nc3ccccc3)n2)cc1 | 15 | 11 | 23 | 41 | 28 | 29 | 12 | 17 | 16 | 45 | 65 | < 10 | < 10 | < 10 | 19 | < 10 | < 10 | 26 | 41 | 36 | inhibition of growth at 10 µM (HOP-62): 11%; inhibition of growth at 10 µM (MDA-MB-468): < 10%; inhibition of growth at 10 µM (T47D): 55%; inhibition of growth at 10 µM (NCI-H522): 24%; inhibition of growth at 10 µM (ACHN): 18%; inhibition of growth at 10 µM (NCI-H23): 10%; inhibition of growth at 10 µM (HOP-92): < 10%; inhibition of growth at 10 µM (UACC-257): < 10%; inhibition of growth at 10 µM (OVCAR-3): 23%; inhibition of growth at 10 µM (SK-MEL-28): 20%; Ki (Carbonic anhydrase 9): 0.0281 µM; inhibition of growth at 10 µM (SF-539): 22%; inhibition of growth at 10 µM (OVCAR-5): < 10%; inhibition of growth at 10 µM (KM12): 27%; inhibition of growth at 10 µM (RXF 393): 64%; inhibition of growth at 10 µM (SK-MEL-5): 29%; inhibition of growth at 10 µM (NCI-H460): 13%; inhibition of growth at 10 µM (MOLT-4): 84%; inhibition of growth at 10 µM (TK-10): < 10%
NS(=O)(=O)c1ccc(Nc2nc(N/N=C/c3ccc([N+](=O)[O-])cc3)nc(Nc3ccccc3)n2)cc1 | 80 | 46 | 49 | 66 | 64 | 42 | 72 | 81 | 44 | 83 | 84 | 54 | 79 | 54 | 63 | 81 | 32 | 47 | 79 | 75 | inhibition of growth at 10 µM (HOP-62): 90%; inhibition of growth at 10 µM (MDA-MB-468): 98%; inhibition of growth at 10 µM (T47D): 85%; inhibition of growth at 10 µM (NCI-H522): 51%; inhibition of growth at 10 µM (ACHN): 17%; inhibition of growth at 10 µM (NCI-H23): 87%; inhibition of growth at 10 µM (HOP-92): 50%; inhibition of growth at 10 µM (UACC-257): 17%; inhibition of growth at 10 µM (OVCAR-3): 53%; inhibition of growth at 10 µM (SK-MEL-28): 64%; Ki (Carbonic anhydrase 9): 0.0317 µM; inhibition of growth at 10 µM (SF-539): 136%; inhibition of growth at 10 µM (OVCAR-5): 18%; inhibition of growth at 10 µM (KM12): 62%; inhibition of growth at 10 µM (RXF 393): 105%; inhibition of growth at 10 µM (SK-MEL-5): 67%; inhibition of growth at 10 µM (NCI-H460): 98%; inhibition of growth at 10 µM (MOLT-4): 88%; inhibition of growth at 10 µM (TK-10): < 10%
